Literature values as cited in patent US5910307A, “Process of extracting and purifying biologically effective ingredients from combined medicinal plants and their extract composition” (priority 1996, dated 1999).

Legend:
[1] = test system: biosynthesis of prostacyclin; conditions: literature
[2] = test system: chronic rheumatoid arthritis induced by Mycobacterium butyricum; conditions: literature

Structure (SMILES)	biosynthesis of prostacyclin generated in the metabolism of arachidonic acid [1]	anti-inflammatory and analgesic effects [2]	effect on chronic rheumatoid arthritis induced by Mycobacterium butyricum [2]
O=C(/C=C/c1ccc(O)c(O)c1)O[C@H](Cc1ccc(O)c(O)c1)C(=O)O [rosmarinic acid]	inhibit		
CC1(C)CC[C@]2(C(=O)O)CC[C@]3(C)C(=CC[C@@H]4[C@@]5(C)CC[C@H](O)C(C)(C)[C@@H]5CC[C@]43C)[C@@H]2C1 [oleanolic acid]		remarkable anti-inflammatory and analgesic effects	effective
